The experiment concerns BDF1 mice, P388 leukemia ip, median survival T/C. The experiment is described as follows: NCI In Vivo Anticancer Drug Screen. Data for tumor model P388 Leukemia (intraperitoneal) in B6D2F1 (BDF1) mice. The conditions noted are these: endpoint: median survival time, higher = longer survival. In outline:
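Vehicle-dosed animals serve as the reference; survival of compound-dosed, tumour-implanted mice is divided by it.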

[1] abbreviates: dose: 100.0 mg/kg/injection, schedule: Q01DX009 (ip), vehicle: Klucel (hydroxypropylcellulose) (HPC).
Where [2] appears, read: dose: 200.0 mg/kg/injection, schedule: Q01DX009 (ip), vehicle: Klucel (hydroxypropylcellulose) (HPC).
Setting [3] is: dose: 400.0 mg/kg/injection, schedule: Q01DX009 (ip), vehicle: Klucel (hydroxypropylcellulose) (HPC).
The mark [4] stands for this setting: dose: 25.0 mg/kg/injection, schedule: Q01DX009 (ip), vehicle: saline.
The mark [5] stands for this setting: dose: 50.0 mg/kg/injection, schedule: Q01DX009 (ip), vehicle: saline.
Where [6] appears, read: dose: 100.0 mg/kg/injection, schedule: Q01DX009 (ip), vehicle: saline.
The mark [7] stands for this setting: dose: 50.0 mg/kg/injection, schedule: Q01DX009 (ip), vehicle: saline with Tween-80.
Where [8] appears, read: dose: 100.0 mg/kg/injection, schedule: Q01DX009 (ip), vehicle: saline with Tween-80.
Where [9] appears, read: dose: 200.0 mg/kg/injection, schedule: Q01DX009 (ip), vehicle: saline with Tween-80.
[10] abbreviates: dose: 100.0 mg/kg/injection, schedule: Q04DX003 (ip), vehicle: saline.
[11] abbreviates: dose: 25.0 mg/kg/injection, schedule: Q01DX009 (ip), vehicle: saline with Tween-80.

The structures appear in SMILES notation. Where “and” joins values, the source holds several entries; their conditions need not be identical. Equal values may be shown once. Toxic doses and inconclusive results are not listed.

On to `COC1=C(N)C(=O)c2nc(-c3nc(C(=O)O)c(C)c(-c4ccc(OC)c(OC)c4O)c3N)ccc2C1=O`, for which the T/C (dose: 0.01 mg/kg/injection, schedule: Q01DX010 (ip), vehicle: saline) is 110 % of control; the T/C (dose: 0.02 mg/kg/injection, schedule: Q01DX009 (ip), vehicle: other) was 118 % of control; the T/C (dose: 0.03 mg/kg/injection, schedule: Q01DX009 (ip), vehicle: dioxane) is 97 % of control; the T/C (dose: 0.03 mg/kg/injection, schedule: Q01DX009 (ip), vehicle: saline) was 114 % of control; the T/C (dose: 0.04 mg/kg/injection, schedule: Q01DX009 (ip), vehicle: dioxane) was 99 % of control and 100 % of control; the T/C (dose: 0.05 mg/kg/injection, schedule: Q01DX009 (ip), vehicle: dioxane) was 114 % of control. Further, the T/C reads like this: (dose: 0.05 mg/kg/injection, schedule: Q01DX009 (ip), vehicle: saline) 161 % of control; (dose: 0.05 mg/kg/injection, schedule: Q01DX010 (ip), vehicle: water) 118 % of control; (dose: 0.05 mg/kg/injection, schedule: Q04DX002 (ip), vehicle: saline) 112 % of control; (dose: 0.06 mg/kg/injection, schedule: Q01DX009 (ip), vehicle: dioxane) 114 % of control; (dose: 0.1 mg/kg/injection, schedule: Q01DX009 (ip), vehicle: saline) 152 % of control; (dose: 0.1 mg/kg/injection, schedule: Q01DX010 (ip), vehicle: saline) 118 % of control. For the same compound, the T/C was 118 % of control (dose: 0.1 mg/kg/injection, schedule: Q04DX003 (ip), vehicle: other); 109 % of control (dose: 0.13 mg/kg/injection, schedule: Q01DX009 (oral), vehicle: other); 118 % of control (dose: 0.2 mg/kg/injection, schedule: Q01DX001 (ip), vehicle: other); 118 % of control (dose: 0.2 mg/kg/injection, schedule: Q01DX010 (ip), vehicle: water); 114 % of control (dose: 0.2 mg/kg/injection, schedule: Q04DX002 (ip), vehicle: saline); 118 % of control (dose: 0.2 mg/kg/injection, schedule: Q04DX003 (ip), vehicle: other). The T/C is, setting by setting: (dose: 0.2 mg/kg/injection, schedule: Q08DX002 (ip), vehicle: other) 118 % of control; (dose: 0.25 mg/kg/injection, schedule: Q01DX009 (oral), vehicle: other) 109 % of control; (dose: 0.4 mg/kg/injection, schedule: Q01DX001 (ip), vehicle: other) 118 % of control; (dose: 0.5 mg/kg/injection, schedule: Q01DX001 (ip), vehicle: other) 122 % of control; (dose: 0.5 mg/kg/injection, schedule: Q01DX009 (oral), vehicle: other) 109 % of control; (dose: 0.5 mg/kg/injection, schedule: Q03HX008 (ip), vehicle: other) 109 % of control. Further, the T/C (dose: 0.5 mg/kg/injection, schedule: Q04DX003 (ip), vehicle: other) was 116 % of control; the T/C (dose: 0.8 mg/kg/injection, schedule: Q01DX001 (ip), vehicle: other) is 113 % of control; the T/C (dose: 0.8 mg/kg/injection, schedule: Q01DX009 (ip), vehicle: saline) is 117 % of control; the T/C (dose: 0.8 mg/kg/injection, schedule: Q04DX003 (ip), vehicle: other) was 118 % of control; the T/C (dose: 0.8 mg/kg/injection, schedule: Q08DX002 (ip), vehicle: other) is 109 % of control; the T/C (dose: 1.0 mg/kg/injection, schedule: Q01DX001 (ip), vehicle: other) is 109 % of control. For the same compound, the T/C reads like this: (dose: 1.0 mg/kg/injection, schedule: Q01DX001 (oral), vehicle: other) 118 % of control; (dose: 1.0 mg/kg/injection, schedule: Q01DX009 (oral), vehicle: other) 100 % of control; (dose: 1.0 mg/kg/injection, schedule: Q03HX008 (ip), vehicle: other) 109 % of control; (dose: 1.0 mg/kg/injection, schedule: Q08DX002 (ip), vehicle: other) 100 % of control; (dose: 2.0 mg/kg/injection, schedule: Q01DX001 (oral), vehicle: other) 100 % of control; (dose: 2.0 mg/kg/injection, schedule: Q01DX009 (oral), vehicle: other) 95 % of control. The T/C runs as follows: (dose: 4.0 mg/kg/injection, schedule: Q01DX001 (oral), vehicle: other) 95 % of control; (dose: 31.2 micrograms/kg/injection, schedule: Q01DX009 (ip), vehicle: other) 116 % of control; (dose: 62.5 micrograms/kg/injection, schedule: Q03HX016 (ip), vehicle: other) 116 % of control; (dose: 62.5 micrograms/kg/injection, schedule: Q03HX024 (ip), vehicle: other) 116 % of control; (dose: 125.0 micrograms/kg/injection, schedule: Q03HX016 (ip), vehicle: other) 100 % of control; (dose: 125.0 micrograms/kg/injection, schedule: Q03HX024 (ip), vehicle: other) 91 % of control. The T/C by setting is: (dose: 250.0 micrograms/kg/injection, schedule: Q01DX009 (ip), vehicle: other) 116 % of control; (dose: 667.0 micrograms/kg/injection, schedule: Q04DX003 (ip), vehicle: alkali diluted with saline) 120 % of control.

As to `Cc1ccc(S(=O)(=O)NCC(C)C)cc1`, the T/C runs as follows: (dose: 50.0 mg/kg/injection, schedule: Q01DX009 (ip), vehicle: Klucel (hydroxypropylcellulose) (HPC)) 94 % of control; under setting [1], 86 % of control; under setting [2], 104 % of control; under setting [3], 102 % of control.

For `CCOC(=O)c1cc(C(=O)OCC)c(=O)oc1OCC`, the T/C was 118 % of control under setting [4], 104 % of control under setting [5] and 118 % of control under setting [6].

Regarding `C(=C\c1nc2ncccn2n1)/c1ccccc1`, the T/C was 101 % of control under setting [7], 87 % of control under setting [8] and 100 % of control under setting [9].

As to `CCOC(=O)C(C#N)c1cccc(C)c1` (centres undefined), the T/C reads like this: (dose: 100.0 mg/kg/injection, schedule: Q04DX003 (ip), vehicle: saline with Tween-80) 100 % of control; (dose: 200.0 mg/kg/injection, schedule: Q04DX003 (ip), vehicle: saline with Tween-80) 100 % of control.

Consider `Nc1nc2ccccc2nc1N`, for which the T/C is, setting by setting: under setting [4], 100 % of control; (dose: 25.0 mg/kg/injection, schedule: Q04DX003 (ip), vehicle: saline) 100 % of control; under setting [5], 100 % of control; (dose: 50.0 mg/kg/injection, schedule: Q04DX003 (ip), vehicle: saline) 95 % of control; under setting [6], 90 % of control; under setting [10], 91 % of control.

As for `O=[N+]([O-])c1ccc(S(=O)(=O)c2ccccc2)c2nonc12`, the T/C was 107 % of control under setting [11] and 98 % of control under setting [7].

Regarding `CN(C)C=Nc1ccccc1`, the T/C was 113 % of control under setting [1], 95 % of control under setting [2] and 109 % of control under setting [3].

As for `Cc1ccc(NC(=O)c2ccc(Cl)cc2)c(Br)c1`, the T/C was 100 % of control (dose: 100.0 mg/kg/injection, schedule: Q01DX001 (ip), vehicle: saline with Tween-80); 109 % of control (dose: 200.0 mg/kg/injection, schedule: Q01DX001 (ip), vehicle: saline with Tween-80); 100 % of control (dose: 400.0 mg/kg/injection, schedule: Q01DX001 (ip), vehicle: saline with Tween-80).

With `Cc1noc2nccnc12`, the T/C was 95 % of control under setting [11] and 95 % of control under setting [7].

For `Cc1[nH]c(=O)[nH]c(=O)c1I`, the T/C is 105 % of control under setting [7], 99 % of control under setting [8] and 101 % of control under setting [9].

With `CCOC(=O)c1cc(C)nnc1C(=O)OCC`, the T/C is, setting by setting: under setting [10], 95 % of control; (dose: 200.0 mg/kg/injection, schedule: Q04DX003 (ip), vehicle: saline) 95 % of control; (dose: 400.0 mg/kg/injection, schedule: Q04DX003 (ip), vehicle: saline) 91 % of control.

For `N#CCC(=O)Cc1ccccc1[N+](=O)[O-]`, under “dose: 400.0 mg/kg/injection, schedule: Q01DX001 (ip), vehicle: saline sonified”, the T/C is 100 % of control.

The record behind these values is PubChem BioAssay AID328 (DTP/NCI, 2004).
